Data taken from patent publication US20250188059A1, “NOVEL COMPOUND AND USE THEREOF FOR INHIBITING CHECKPOINT KINASE 2” (ARUM THERAPEUTICS INC, priority 2022, published 2025).
Where two headings read alike, the source gives them in different places.

Experiments:
[1] = tested on: human breast cancer cell line MCF-7; experiment: Cancer cell growth inhibition test (CellTiter-Glo); type: cell-based; conditions: MCF-7, 72 hours
Experimental: The human breast cancer cell line MCF-7 was treated with trypsin and harvested. The number of cells was counted, and about 3000 cells/80 μl per well were inoculated into a 96 well plate (Corning) and then incubated in a 37° C. incubator for 24 hours. Thereafter, the example compounds were diluted in a culture solution at various concentrations, and each well was treated with 20 μl and stored in a cell culture incubator for 72 hours. In the case of the group administered in combination, the example compounds and cisplatin or doxorubicin were diluted in a culture solution at various concentrations, and each well was treated with 20 μl. After 72 hours, each well was treated with 30 μl of CellTiter-Glo solution (Promega), and the luminescence was read on a Victor3 multi label reader (PerkinElmer).
Relative viability (%)=(value of each test well/value of well treated with DMSO alone)×100
The results obtained for each concentration for each example compound were the average values obtained from three wells, and PRIZM software was used for analysis of the results.

Chk1 kinase = Chk1 kinase (Homo sapiens (Human), UniProt O14757); experiment: Chk1 kinase inhibitory activity (LanthaScreen TR-FRET); type: biochemical; conditions: graded
Experimental: (§1) The compounds of Examples 1 to 66 were diluted at various concentrations and transferred to a 384-well plate by 5 μl, and 10 μl of a mixed solution (2×) of Chk1 kinase (Thermo, P3040) or Chk2 kinase (Thermo, PV3367) and a substrate (Thermo, PV3508) was added to wells treated with the compounds. 5 μl of an ATP solution at a 4× concentration was added to the test well and reacted at room temperature for 1 hour. 20 μl of LanthaScreen Terbium-CREB p-Ser 133 antibody (Thermo, PV3542) was added to the reaction well and incubated at room temperature for 30 minutes. Conversion data was measured by an EnVision 2014 multi label reader (PerkinElmer). The activity for each concentration was determined by the ratio (FRET ratio=FR) of the value obtained by dividing the value at 520 nm by the value at 490 nm among the emission wavelength values for each wavelength (Em520/Em490). The results obtained for each concentration of the compounds were the average values obtained in two wells, and the IC50 values of the compounds were calculated using PRIZM software for analysis of the results. IC50 in Table 7 was graded as follows.

Chk2 kinase = Chk2 kinase (Homo sapiens (Human), UniProt O96017); experiment: Chk2 kinase inhibitory activity (LanthaScreen TR-FRET); type: biochemical; conditions: graded
Experimental: as §1

[2] = Homo sapiens, MCF7, 72 h, graded, read-out: Celltiter glo analysis (IC50)
[3] = graded, read-out: Celltiter glo analysis (IC50)
[4] = Homo sapiens, MCF7, 72 h, alone, read-out: Administered alone (IC50)
[5] = combination with cisplatin, read-out: Administered in combination with cisplatin (IC50)
[6] = combination with doxorubicin, read-out: Administered in combination with doxorubicin (IC50)

Chk2 kinase, sequence (O96017 whole entry): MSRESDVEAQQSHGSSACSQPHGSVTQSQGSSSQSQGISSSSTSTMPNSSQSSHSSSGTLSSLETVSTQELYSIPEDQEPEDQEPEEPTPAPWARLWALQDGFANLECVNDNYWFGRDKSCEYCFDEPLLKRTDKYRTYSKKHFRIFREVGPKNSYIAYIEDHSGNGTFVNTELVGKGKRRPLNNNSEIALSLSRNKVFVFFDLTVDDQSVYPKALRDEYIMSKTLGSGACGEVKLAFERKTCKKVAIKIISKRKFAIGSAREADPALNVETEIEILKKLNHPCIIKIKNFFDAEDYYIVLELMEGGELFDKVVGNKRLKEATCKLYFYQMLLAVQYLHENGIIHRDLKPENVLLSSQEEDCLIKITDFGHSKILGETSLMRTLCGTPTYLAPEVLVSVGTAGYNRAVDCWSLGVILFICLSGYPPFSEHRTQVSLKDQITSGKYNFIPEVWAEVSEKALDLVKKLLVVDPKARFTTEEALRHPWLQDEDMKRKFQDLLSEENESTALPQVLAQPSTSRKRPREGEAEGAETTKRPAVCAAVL
Chk1 kinase, sequence (O14757 whole entry): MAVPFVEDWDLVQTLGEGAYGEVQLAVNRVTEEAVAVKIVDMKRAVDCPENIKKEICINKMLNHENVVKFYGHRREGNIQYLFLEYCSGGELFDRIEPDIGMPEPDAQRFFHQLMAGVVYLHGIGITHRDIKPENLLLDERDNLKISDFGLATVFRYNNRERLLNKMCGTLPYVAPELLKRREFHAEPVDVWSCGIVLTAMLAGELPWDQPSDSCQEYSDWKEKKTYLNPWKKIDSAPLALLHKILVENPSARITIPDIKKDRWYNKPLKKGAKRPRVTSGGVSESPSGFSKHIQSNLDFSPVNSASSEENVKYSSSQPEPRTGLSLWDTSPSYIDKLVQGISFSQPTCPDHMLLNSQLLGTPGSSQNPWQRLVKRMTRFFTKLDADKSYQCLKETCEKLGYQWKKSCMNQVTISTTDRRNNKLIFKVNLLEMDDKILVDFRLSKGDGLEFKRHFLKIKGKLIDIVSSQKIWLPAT

SMILES	IC50 [1, 2]	IC50 (Chk1 kinase)	IC50 (Chk2 kinase)	IC50 [1, 3]	IC50 [1, 4]	IC50 [1, 5]	IC50 [1, 6]
Cn1cc(-c2ccc(F)c(-c3cnc(N)c(C(=O)NC4CCC5(CC5)NC4)n3)c2)cn1 (racemic) [Example 40, 3-amino-6-(2-fluoro-5-(1-methyl-1H-pyrazol-4-yl)phenyl)-N-(4-azaspiro[2.5]octan-6-yl) pyrazine-2-carboxamide]	> 100000 nM	10 to 100 nM	≤ 10 nM	–	–	–	–
Cn1cc(-c2cccc(-c3cnc(N)c(C(=O)NC4CCC5(CC5)NC4)n3)c2)cn1 (racemic) [Example 41, 3-amino-6-(3-(1-methyl-1H-pyrazol-4-yl)phenyl)-N-(4-azaspiro[2.5]octan-6-yl)pyrazine-2-carboxamide]	> 100000 nM	10 to 100 nM	≤ 10 nM	–	–	–	–
CC1(C)Cc2c(-c3cccc(-c4cnc(N)c(C(=O)N[C@H]5CCC6(CC6)NC5)n4)c3)cnn2C1 (stereo in doubt) [Example 65, 3-amino-6-(3-(5,5-dimethyl-5,6-dihydro-4H-pyrrolo[1,2-b]pyrazol-3-yl)phenyl)-N-(4-azaspiro[2.5]octan-6-yl)pyrazine-2-carboxamide]	–	10 to 100 nM	10 to 100 nM	> 100000 nM	–	–	–
CC1(C)Cc2c(-c3ccc(F)c(-c4cnc(N)c(C(=O)N[C@H]5CCC6(CC6)NC5)n4)c3)cnn2C1 (stereo in doubt) [Example 66, 3-amino-6-(5-(5,5-dimethyl-5,6-dihydro-4H-pyrrolo[1,2-b]pyrazol-3-yl)-2-fluorophenyl)-N-(4-azaspiro[2.5]octan-6-yl)pyrazine-2-carboxamide]	–	> 1000 nM	10 to 100 nM	≤ 10000 nM	–	–	–
Nc1ncc(-c2cc(-c3cnn(CC(F)(F)F)c3)ncc2F)nc1C(=O)N[C@@H]1CNC[C@@H](F)C1 [Example 2, 3-amino-6-(5-fluoro-2-(1-(2,2,2-trifluoroethyl)-1H-pyrazol-4-yl)pyridin-4-yl)-N-((3S,5S)-5-fluoropiperidin-3-yl)pyrazine-2-carboxamide]	10000 to 100000 nM	100 to 1000 nM	10 to 100 nM	–	–	–	–
Nc1ncc(-c2cc(-c3cnn(CC(F)(F)F)c3)ncc2F)nc1C(=O)N[C@@H]1CNCC(F)(F)C1 [Example 4, (S)-3-amino-N-(5,5-difluoropiperidin-3-yl)-6-(5-fluoro-2-(1-(2,2,2-trifluoroethyl)-1H-pyrazol-4-yl)pyridin-4-yl)pyrazine-2-carboxamide]	10000 to 100000 nM	> 1000 nM	10 to 100 nM	–	48100 nM	3440 nM	670 nM
Nc1ncc(-c2ccnc(-c3cnn(CC(F)(F)F)c3)c2)nc1C(=O)N[C@@H]1CNCC[C@H]1O [Example 14, 3-amino-N-((3R,4R)-4-hydroxypiperidin-3-yl)-6-(2-(1-(2,2,2-trifluoroethyl)-1H-pyrazol-4-yl)pyridin-4-yl)pyrazine-2-carboxamide]	> 100000 nM	100 to 1000 nM	10 to 100 nM	–	–	–	–
Nc1ncc(-c2ccnc(-c3cnn(CC(F)(F)F)c3)c2)nc1C(=O)N[C@@H]1CNC[C@@H](F)C1 [Example 15, 3-amino-N-((3S,5S)-5-fluoropiperidin-3-yl)-6-(2-(1-(2,2,2-trifluoroethyl)-1H-pyrazol-4-yl)pyridin-4-yl)pyrazine-2-carboxamide]	≤ 10000 nM	100 to 1000 nM	≤ 10 nM	–	11800 nM	2270 nM	3050 nM
Cn1cc(-c2cccc(-c3cnc(N)c(C(=O)N[C@H]4CCCNC4)n3)c2)cn1 [Example 16, (S)-3-amino-6-(3-(1-methyl-1H-pyrazol-4-yl)phenyl)-N-(piperidin-3-yl)pyrazine-2-carboxamide]	10000 to 100000 nM	10 to 100 nM	≤ 10 nM	–	–	–	–
CC(C)(O)Cn1cc(-c2cc(-c3cnc(N)c(C(=O)N[C@@H]4CNC[C@@H](F)C4)n3)ccn2)cn1 [Example 34, 3-amino-N-((3S,5S)-5-fluoropiperidin-3-yl)-6-(2-(1-(2-hydroxy-2-methylpropyl)-1H-pyrazol-4-yl)pyridin-4-yl)pyrazine-2-carboxamide]	–	10 to 100 nM	–	–	–	–	–
CC1(C)Cc2c(-c3cccc(-c4cnc(N)c(C(=O)N[C@H]5CCC6(CC6)NC5)n4)c3)cnn2C1 [Example 51, (S)-3-amino-6-(3-(5,5-dimethyl-5,6-dihydro-4H-pyrrolo[1,2-b]pyrazol-3-yl)phenyl)-N-(4-azaspiro[2.5]octan-6-yl)pyrazine-2-carboxamide]	–	–	≤ 10 nM	10000 to 100000 nM	–	–	–
CC1(C)Cc2c(-c3cccc(-c4cnc(N)c(C(=O)N[C@@H]5CNCC[C@H]5O)n4)c3)cnn2C1 [Example 52, 3-amino-6-(3-(5,5-dimethyl-5,6-dihydro-4H-pyrrolo[1,2-b]pyrazol-3-yl)phenyl)-N-((3R,4R)-4-hydroxypiperidine-3-yl)pyrazine-2-carboxamide]	10000 to 100000 nM	–	10 to 100 nM	–	–	–	–
CC1(C)Cc2c(-c3cc(-c4cnc(N)c(C(=O)N[C@@H]5CNCC[C@H]5O)n4)ccn3)cnn2C1 [Example 53, 3-amino-6-(2-(5,5-dimethyl-5,6-dihydro-4H-pyrrolo[1,2-b]pyrazol-3-yl)pyridin-4-yl)-N-((3R,4R)-4-hydroxypiperidin-3-yl)pyrazine-2-carboxamide]	> 100000 nM	–	10 to 100 nM	–	–	–	–
CC1(C)Cc2c(-c3cc(-c4cnc(N)c(C(=O)N[C@@H]5CNC[C@H]5O)n4)ccn3)cnn2C1 [Example 54, 3-amino-6-(2-(5,5-dimethyl-5,6-dihydro-4H-pyrrolo[1,2-b]pyrazol-3-yl)pyridin-4-yl)-N-((3R,4R)-4-hydroxypyrrolidin-3-yl)pyrazine-2-carboxamide]	> 100000 nM	–	≤ 10 nM	–	–	–	–
CC1(C)Cc2c(-c3ccc(O)c(-c4cnc(N)c(C(=O)N[C@@H]5CNC[C@@H](F)C5)n4)c3)cnn2C1 [Example 55, 3-amino-6-(5-(5,5-dimethyl-5,6-dihydro-4H-pyrrolo[1,2-b]pyrazol-3-yl)-2-hydroxyphenyl)-N-((3S,5S)-5-fluoropiperidin-3-yl)pyrazine-2-carboxamide]	10000 to 100000 nM	–	≤ 10 nM	–	–	–	–
CC1(C)Cc2c(-c3ccc(O)c(-c4cnc(N)c(C(=O)N[C@H]5CCC6(CC6)NC5)n4)c3)cnn2C1 [Example 56, (S)-3-amino-6-(5-(5,5-dimethyl-5,6-dihydro-4H-pyrrolo[1,2-b]pyrazol-3-yl)-2-hydroxyphenyl)-N-(4-azaspiro[2.5]octan-6-yl)pyrazine-2-carboxamide]	10000 to 100000 nM	–	≤ 10 nM	–	–	–	–
CC1(C)Cc2c(-c3ccc(O)c(-c4cnc(N)c(C(=O)N[C@@H]5CNC[C@H]5O)n4)c3)cnn2C1 [Example 57, 3-amino-6-(5-(5,5-dimethyl-5,6-dihydro-4H-pyrrolo[1,2-b]pyrazol-3-yl)-2-hydroxyphenyl)-N-((3R,4R)-4-hydroxypyrrolidin-3-yl)pyrazine-2-carboxamide]	> 100000 nM	–	10 to 100 nM	–	–	–	–
CC1(C)Cc2c(-c3cccc(-c4cnc(N)c(C(=O)N[C@@H]5CNCCC5(F)F)n4)c3)cnn2C1 [Example 58, 3-amino-N-(4,4-difluoropiperidin-3-y)-6-(3-(5,5-dimethyl-5,6-dihydro-4H-pyrrolo[1,2-b]pyrazol-3-yl)phenyl)pyrazine-2-carboxamide]	10000 to 100000 nM	–	≤ 10 nM	–	–	–	–
CC1(C)Cc2c(-c3cccc(-c4cnc(N)c(C(=O)N[C@@H]5CNC[C@H]5O)n4)c3)cnn2C1 [Example 60, 3-amino-6-(3-(5,5-dimethyl-5,6-dihydro-4H-pyrrolo[1,2-b]pyrazol-3-yl)phenyl)-N-((3R,4R)-4-hydroxypyrrolidin-3-yl)pyrazine-2-carboxamide]	> 100000 nM	–	≤ 10 nM	–	–	–	–
CC1(C)Cc2c(-c3cccc(-c4cnc(N)c(C(=O)N[C@H]5CNC[C@@H]5F)n4)c3)cnn2C1 [Example 62, 3-amino-6-(3-(5,5-dimethyl-5,6-dihydro-4H-pyrrolo[1,2-b]pyrazol-3-yl)phenyl)-N-((3S,4S)-4-fluoropyrrolidin-3-yl) pyrazine-2-carboxamide]	10000 to 100000 nM	–	10 to 100 nM	–	–	–	–
CC1(C)Cc2c(-c3nccc(-c4cnc(N)c(C(=O)N[C@H]5CCC6(CC6)NC5)n4)n3)cnn2C1 [Example 63, (S)-3-amino-6-(2-(5,5-dimethyl-5,6-dihydro-4H-pyrrolo[1,2-b]pyrazol-3-yl)pyrimidin-4-yl)-N-(4-azaspiro[2.5]octan-6-yl) pyrazine-2-carboxamide]	10000 to 100000 nM	–	≤ 10 nM	–	–	–	–
